This note sets out measurements from patent US8609733B2, “Sensory-specific local anesthesia and prolonged duration local anesthesia” (Massachusetts Institute of Technology, priority 2008, dated 2013).

Several values for one entry are separate records, joined by “and”; a condition that tells them apart may be missing. Equal values may be shown once.

Holding throughout (format): in vivo, Sprague-Dawley rats
Experiment [1] relates to sciatic nerve. The experiment is described as follows: Sensory selectivity of sciatic nerve blockade (thermal nociceptive versus motor block). To be noted: for selective thermal nociceptive blockade as compared to motor blockade: in combination with OTAB (Example 3: 100 mM QX-222, 30 mM OTAB). The method, then: (§1) Animals were cared for in compliance with protocols approved by the Massachusetts Institute of Technology (MIT) Committee on Animal Care, in conformity with the NIH guidelines for the care and use of laboratory animals (NIH publication #85-23, revised 1985). Rats were anesthetized using isoflurane in oxygen. A 25-gauge needle was introduced posteromedial to the greater trochanter, and 300 μL of the QX-314+/−enhancer solution was injected upon contacting bone. To determine the effect of QX-314 on sensory and motor blockade, animals were injected with QX-314 at different concentrations. To determine the effect of the chemical penetration enhancer (OTAB) on the sensory and motor blockade produced by QX-314, animals were injected with different concentrations of OTAB, with the concentration of QX-314 kept constant at 25 mM.
(§2) In all experiments, the experimenter was blinded as to what treatment any given rat had received. Presence and extent of nerve blockade was investigated as previously described (Kohane, et al., Anesthesiology, 89:1199-1208 (1998); Padera, et al., Muscle Nerve, 34:747-53 (2006); Kohane, et al., Anesthesiology, 89:119-31 (1998); Masters, et al., Anesthesiology, 79(2):340-346 (1993)). Briefly, thermal nociception of each leg was assessed, with the right (uninjected) leg serving as an untreated control.
(§3) Thermal nociception was assessed by a modified hotplate test. Hind paws were exposed in sequence (left then right) to a 56° C. hot plate (Model 39D Hot Plate Analgesia Meter, IITC Inc., Woodland Hills, Calif.). The time (latency) until paw withdrawal was measured with a stopwatch.
(§4) The duration of thermal nociceptive block was calculated as the time required for thermal latency to return to a value of 7 seconds from a higher value. Seven seconds is the midpoint between a baseline thermal latency of approximately 2 seconds in adult rats and a Maximal latency of 12 seconds. Latencies greater than 7 sec were considered to be effective blocks.
(§5) The rat was held with its posterior placed at a digital balance on which it could bear weight with one hindpaw at a time. The maximum weight that the rat could bear without its ankle touching the balance was measured.
(§6) Methods were as described in Example 1.
(§7) To establish that the selective block could be obtained with other local anesthetics, the methods of example 1 were performed using 100 mM QX-222 and 30 mM OTAB, and compared to the results obtained using 100 mM […] and 30 mM OTAB.

Experiment [2] relates to sciatic nerve. The experiment is described as follows: Duration of thermal nociceptive (sensory) block after sciatic nerve injection, modified hotplate test. The method, then: (§8) Young adult male Sprague-Dawley rats (350-420 g) were obtained from Charles River Laboratories (Wilmington, Mass.) and housed in groups of two per cage on a 6 a.m. to 6 p.m. light/dark cycle. All animals were cared for in accordance with protocols approved institutionally and nationally.
(§9) QX-314 and octyltriethylammonium bromide (OTAB) (Sigma) solutions were prepared in saline individually and in combination with each enhancer the night before scheduled injections.
as §1, §2, §3, §4, §6, §7

For experiment [3], the system named is sciatic nerve. Description: Duration of motor block after sciatic nerve injection, extensor postural thrust (EPT). The method, then:
as §8, §9, §1, §2, §5, §6, §7

Setting [4] is: 25 mM QX-314 co-injected with 5 mM SOS.
Setting [5] is: 25 mM QX-314 co-injected with 10 mM SOS.
Setting [6] is: 25 mM QX-314 co-injected with 0.5% TWEEN 20.
The mark [7] stands for this setting: QX-314 without CPE, different concentrations, 300 μl.

Turning to `Cc1cccc(C)c1NC(=O)C[N+](C)(C)C` [QX-222, 2-((2,6-dimethylphenyl)amino)-N,N,N-trimethyl-2-oxoethanaminium], in the experiment with sciatic nerve [1], the “selective thermal nociceptive blockade as compared to motor blockade” value is recorded as “Comparable selective thermal nociceptive blockade”.

Regarding `CC[N+](CC)(CC)CC(=O)Nc1c(C)cccc1C` [QX-314, N-(2,6)dimethylphenylcarbamoylmethyl triethylammonium bromide], the sensory block in the experiment on sciatic nerve [2] (setting [4]) stood at 235 min; in the experiment with sciatic nerve [2] (setting [5]), 870 min. In addition, the “sensory DEB (duration of effective block)” value with sciatic nerve [2] (25 mM QX-314 co-injected with 20 mM OTAB) is 428 min and 406 min. Moreover, the “duration of sensory block” value with sciatic nerve [2] (25 mM QX-314 co-injected with 30 mM OTAB) came out at 450 min. Besides, the median sensory blockade with sciatic nerve [2] (setting [6]) worked out at 269 min. Also, the “sensory duration of block versus concentration” value with sciatic nerve [2] (setting [7]) is listed as “concentration-dependent increase”. Moreover, in the experiment on sciatic nerve [1] (25 mM QX-314 co-injected with SOS 5, 10, 20, 30 mM), the sensory selectivity result is “sensory selectivity at all concentrations of SOS”. Further, the sensory specificity entry with sciatic nerve [1] (25 mM QX-314 with higher OTAB concentrations (>30 mM)) is “no sensory specificity”. Besides, the specificity of block entry in the experiment on sciatic nerve [1] (25 mM QX-314 with higher SOS concentrations (10-30 mM)) is recorded as “initially non-specific”. Further, the “sensory versus motor block duration” value with sciatic nerve [1] (25 mM QX-314 with lower concentrations of OTAB (10-30 mM)) was “significant increase in sensory block duration, without a corresponding increase in motor block duration”. Also, the modality specificity result with sciatic nerve [1] (QX-314 in the absence of a CPE) is recorded as “no evidence of modality specificity”. For the same compound, the “TWEEN 20 concentration of maximum sensory specificity (optimal)” value in the experiment with sciatic nerve [1] (co-injected with 25 mM QX-314) came out at 0.5%. Further, the “selective thermal nociceptive blockade as compared to motor blockade” value with sciatic nerve [1] is listed as “Comparable selective thermal nociceptive blockade”. Moreover, the “SOS concentration range with sensory selectivity” value in the experiment with sciatic nerve [1] (with 25 mM QX-314) lay within 1 to 50 mM. Also, the “optimal OTAB concentration for sensory selectivity” value in the experiment with sciatic nerve [1] (with 25 mM QX-314) was determined as 20 mM. Besides, the “duration of motor block” value with sciatic nerve [3] (25 mM QX-314 alone, 300 μL at the sciatic nerve, rat) came out at 165 min. In addition, the figures for the motor block in the experiment with sciatic nerve [3] (setting [4]) and in the experiment on sciatic nerve [3] (setting [5]) were 0 min and 532 min, respectively. The motor effect result in the experiment with sciatic nerve [3] (25 mM QX-314 co-injected with 20 mM or 30 mM OTAB) is listed as “little or no motor effect”. Besides, the median motor blockade in the experiment with sciatic nerve [3] (setting [6]) came to 0 min. The “motor duration of block versus concentration” value in the experiment with sciatic nerve [3] (setting [7]) is on record as “concentration-dependent increase”.
